In paper PMC3755734 (Angewandte Chemie (International ed. in English), 2011) one finds IC50 data, which are given here for one compound.

Holding throughout (assay type): biochemical
In assay [1] the target is T1, CKIα (Homo sapiens, UniProt P48729).
T1 sequence (P48729 2-337): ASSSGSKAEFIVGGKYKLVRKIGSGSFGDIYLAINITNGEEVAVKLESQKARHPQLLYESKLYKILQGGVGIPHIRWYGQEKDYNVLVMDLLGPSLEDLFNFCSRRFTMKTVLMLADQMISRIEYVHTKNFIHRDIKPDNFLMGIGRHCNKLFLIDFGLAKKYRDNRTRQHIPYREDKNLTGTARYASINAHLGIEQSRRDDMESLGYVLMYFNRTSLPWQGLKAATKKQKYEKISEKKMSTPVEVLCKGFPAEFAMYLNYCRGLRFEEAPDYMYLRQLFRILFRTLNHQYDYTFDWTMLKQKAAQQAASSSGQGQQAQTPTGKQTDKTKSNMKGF
The assay is described as follows: in vitro kinase assay.

Assay [2] deals with casein kinase 1 delta (CKIδ) (Homo sapiens, UniProt P48730). Nature of the assay: in vitro kinase assay IC50.
For assay [3], the target named is CKIε (Homo sapiens, UniProt P49674). Nature of the assay: in vitro kinase assay.
Sequence of CKIε (P49674 whole entry): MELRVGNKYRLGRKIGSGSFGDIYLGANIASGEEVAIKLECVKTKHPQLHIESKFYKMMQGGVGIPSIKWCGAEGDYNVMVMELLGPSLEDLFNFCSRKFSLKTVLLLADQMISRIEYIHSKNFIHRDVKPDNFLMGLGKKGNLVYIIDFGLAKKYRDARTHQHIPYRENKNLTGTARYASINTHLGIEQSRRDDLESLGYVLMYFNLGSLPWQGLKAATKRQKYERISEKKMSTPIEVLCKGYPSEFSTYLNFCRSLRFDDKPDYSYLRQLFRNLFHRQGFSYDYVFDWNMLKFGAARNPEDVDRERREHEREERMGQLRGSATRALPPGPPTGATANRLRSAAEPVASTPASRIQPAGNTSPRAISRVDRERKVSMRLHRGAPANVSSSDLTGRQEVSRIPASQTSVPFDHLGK

Sequence of casein kinase 1 delta (CKIδ) (P48730 whole entry): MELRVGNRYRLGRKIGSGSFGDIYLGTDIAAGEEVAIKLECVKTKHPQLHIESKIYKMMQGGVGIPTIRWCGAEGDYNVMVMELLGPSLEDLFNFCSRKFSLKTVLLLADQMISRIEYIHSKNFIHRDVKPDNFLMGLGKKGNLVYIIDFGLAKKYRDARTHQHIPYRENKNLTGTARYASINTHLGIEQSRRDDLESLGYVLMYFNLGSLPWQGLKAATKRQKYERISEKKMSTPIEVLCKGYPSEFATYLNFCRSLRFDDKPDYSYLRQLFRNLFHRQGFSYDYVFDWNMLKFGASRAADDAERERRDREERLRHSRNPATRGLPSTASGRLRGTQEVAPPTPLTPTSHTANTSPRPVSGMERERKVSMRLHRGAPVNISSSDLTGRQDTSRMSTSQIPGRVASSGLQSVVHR

Take `Cc1cc2sc(NC(=O)Cc3ccccc3)nc2cc1Cl` [LH846]: the results for the IC50 in assay [1], in assay [2] and in assay [3] were 2500 nM, 290 nM and 1300 nM, respectively.
